Source: patent publication US20120058504A1, “METHODS AND APPARATUS FOR DIELECT[…] AND MEASUREMENT OF SINGLE CELLS OR OTHER PARTICLES IN MI[…]” (SIMON FRASER UNIVERSITY, priority 2009, published 2012)

Tests used:
[1] = test system: MDR leukemia cancer cell (CEM VLB); assay: DNR accumulation and MDR reversal in a single cell, DEP-based microfluidic chip (Chip IV), fluorescence measurement; details: DNR 35 μM, before CsA was delivered, 100-200 s, 35° C.
Method: Furthermore, DEP conditions were optimized to move a single multidrug resistant cancer cell 43 during fluorescence measurement using Chip TV (FIG. 20). Cell 43 was transferred out of fluorescent detection window 47 and back into detection window 47 by switching the voltage between electrodes AB and electrodes BC. When cell 43 was moved out of detection window 47, only the background (Fbackground) was measured. When cell 43 was moved back into detection window 47, the total fluorescence (Ftotal) was measured. By background correction, the absolute fluorescence of cell 43 (Fcell=Ftotal−Fbackground) was obtained. At the same time, a chemo-therapeutic drug, daunorubicin (DNR) was delivered to cell retention region 30 via solution reservoir 18B and microchannel 20B. The uptake of DNR inside a single MDR cancer cell 43 (CEM VLB) was monitored. The measurement results are depicted in FIG. 20b, showing many cycles of cell fluorescence (peaks) and troughs (background). […]
After DEP-based single cell chip 10 (Chip IV, FIG. 20) was used to move leukemia cancer cell 43 into and out of detection window 47 during fluorescence measurement for anticancer drug (for example, daunorubicin (DNR)) accumulation inside cell 43, chip 10 was further used for MDR reversal studies at an elevated temperature (35° C.). […]

CEM VLB cell = assay: DNR accumulation in a single adhered cell, SASCA method (chip without DEP electrodes), fluorescence measurement; assay type: cell-based; details: chip translated, α-MEM medium
Method: (b) The fluorescent measurement of the adhered cell when the chip was translated into the measurement window (the peak provides the total fluorescence) and out of the measurement window (the baseline provides the background).
The SASCA method was performed for comparison with the DEP-based method. The SASCA method was performed in a chip without DEP electrodes. Cell 43 was moved into and out detection window 47 and at the same time DNR was delivered to cell retention region 30 (FIG. 21). In the SASCA method, cell movement was achieved by moving the chip with cell 43 which adheres to the bottom surface of cell retention region 30 in the chip.

## COc1cccc2c1C(=O)c1c(O)c3c(c(O)c1C2=O)C[C@@](O)(C(C)=O)C[C@@H]3O[C@H]1C[C@H](N)[C@H](O)[C@H](C)O1 [DNR, daunorubicin]
[1]
  DNR accumulation in cell (cell fluorescence, peaks minus troughs): very little DNR accumulation
CEM VLB cell
  DNR accumulation in cell (fluorescence of cell over measurement time): accumulated inside the cell
